Source: ChEMBL document CHEMBL5050844 (2019)

Columns and labels:
[1] = target: E3 ubiquitin-protein ligase CBL-B (Homo sapiens, UniProt Q13191); test: Inhibition of N-terminal Avi-tagged human CBL-B (36 to 427 residues) incubated with 60 nM Src kinase for 1.5 hrs followed by incubation with fluorescently labeled UbcH5B-Ub for 1 hr and measured by TR-FRET assay; type: single protein
[2] = Induction of anti-CD3/CD28 antibodies-stimulated human T cell activation at 1 uM assessed fold increase in IL-2 secretion measured by ELISA assay; type: functional, T cell line
[3] = Induction of anti-CD3/CD28 antibodies-stimulated human T cell activation at 0.3 uM assessed fold increase in IL-2 secretion measured by ELISA assay; type: functional, T cell line
[4] = Induction of anti-CD3 antibodies-stimulated human T cell activation at 1 uM assessed fold increase in IL-2 secretion measured by ELISA assay; type: functional, T cell line; further: reference of the scale not given here
[5] = Induction of anti-CD3/CD28 antibodies-stimulated human T cell activation at 1 uM assessed fold increase in CD25 expression measured by ELISA assay; type: functional, T cell line
[6] = Induction of anti-CD3/CD28 antibodies-stimulated human T cell activation at 0.3 uM assessed fold increase in CD25 expression measured by ELISA assay; type: functional, T cell line
[7] = Induction of anti-CD3 antibodies-stimulated human T cell activation at 1 uM assessed fold increase in CD25 expression measured by ELISA assay; type: functional, T cell line; further: reference of the scale not given here

E3 ubiquitin-protein ligase CBL-B, sequence (Q13191 whole entry, the tested form may be a part): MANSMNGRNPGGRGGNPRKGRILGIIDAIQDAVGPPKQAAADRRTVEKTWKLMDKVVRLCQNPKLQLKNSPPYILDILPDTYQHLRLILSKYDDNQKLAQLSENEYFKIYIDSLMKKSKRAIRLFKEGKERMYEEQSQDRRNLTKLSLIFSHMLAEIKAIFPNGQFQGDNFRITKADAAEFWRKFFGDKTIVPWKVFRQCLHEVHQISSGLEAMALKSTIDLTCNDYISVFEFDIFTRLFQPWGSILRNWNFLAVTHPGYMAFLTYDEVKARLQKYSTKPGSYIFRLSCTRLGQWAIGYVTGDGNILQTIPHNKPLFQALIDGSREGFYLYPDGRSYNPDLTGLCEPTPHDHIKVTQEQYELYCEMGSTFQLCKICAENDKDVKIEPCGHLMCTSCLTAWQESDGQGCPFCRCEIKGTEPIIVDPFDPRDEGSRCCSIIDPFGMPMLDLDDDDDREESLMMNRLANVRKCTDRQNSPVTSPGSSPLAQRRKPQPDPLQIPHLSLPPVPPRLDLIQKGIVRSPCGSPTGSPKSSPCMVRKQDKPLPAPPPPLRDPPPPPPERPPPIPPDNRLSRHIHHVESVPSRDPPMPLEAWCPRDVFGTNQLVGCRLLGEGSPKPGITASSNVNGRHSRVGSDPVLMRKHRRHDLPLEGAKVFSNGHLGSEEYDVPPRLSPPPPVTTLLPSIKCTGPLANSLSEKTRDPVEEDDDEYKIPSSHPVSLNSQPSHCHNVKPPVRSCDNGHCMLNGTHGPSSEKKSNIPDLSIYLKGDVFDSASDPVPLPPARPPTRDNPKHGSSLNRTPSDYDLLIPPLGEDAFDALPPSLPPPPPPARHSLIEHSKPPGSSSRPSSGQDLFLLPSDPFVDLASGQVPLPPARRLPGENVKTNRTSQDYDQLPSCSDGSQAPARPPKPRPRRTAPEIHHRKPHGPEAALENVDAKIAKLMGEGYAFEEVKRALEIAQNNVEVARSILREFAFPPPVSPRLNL

Row | Compound | IC50 [1] [nM] | fold change (FC) [2] | fold change (FC) [3] | fold change (FC) [4] | fold change (FC) [5] | fold change (FC) [6] | fold change (FC) [7] | fold change (FC) ([4]; 1 µM) | fold change (FC) ([5]; 1 µM) | fold change (FC) ([6]; 0.3 µM) | fold change (FC) ([7]; 1 µM)
1 | C[C@H](c1cc2c(c(C(F)(F)F)c1)CN(c1cccc(C3(Cc4nncn4C)COC3)c1)C2=O)N1CC(F)C1 | < 100 | 5 | 2.51 | 0.101 | 1.51 | 1.31 | >=1.001 |  |  |  | 
2 | Cn1cnnc1CC1(c2cccc(N3Cc4c(cc(CN5CCC[C@@H](F)C5)cc4C(F)(F)F)C3=O)c2)COC1 | < 100 | >=7.5 | >=7.5 | >=0.201 | 1.31 | 1.31 | >=1.001 |  |  |  | 
3 | Cn1cnnc1CC1(c2cccc(N3Cc4c(cc(CN5CC[C@H](F)C5)nc4C4CC4)C3=O)c2)COC1 | < 100 | 5 | 2.51 | 0.051 | 1.01 | 1.01 | 0.801 |  |  |  | 
4 | CN1CC2CCC1CN2c1cc2c(c(C(F)(F)F)c1)CN(c1cccc([C@@](C)(F)C(F)(F)c3nncn3C)c1)C2=O (some centres undefined) | < 100 | 2.51 | 1.01 | 0.101 | 1.31 | 1.31 | >=1.001 |  |  |  | 
5 | Cn1cnnc1CC1(c2cccc(N3Cc4c(cc(N5CCC(C(F)F)C5)cc4C(F)(F)F)C3=O)c2)COC1 (centres undefined) | < 100 | 2.51 | 1.01 | <=0.05 | 1.01 | 1.01 | 0.601 |  |  |  | 
6 | CC1CCN(Cc2cc3c(c(C(F)(F)F)c2)CN(c2cccc(C4(Cc5nncn5C)COC4)c2)C3=O)CC1(F)F (centres undefined) | < 100 | >=7.5 | >=7.5 | >=0.201 | 1.31 | 1.31 | >=1.001 |  |  |  | 
7 | Cc1cc(C(=O)Nc2cccc(C3(Cc4nncn4C)CCC3)c2)nc(C2CC2)n1 | < 100 | >=7.5 | >=7.5 | 0.051 | 1.31 | 1.31 | >=1.001 |  |  |  | 
8 | CC1CN(c2cc3c(c(C(F)(F)F)c2)CN(c2cccc(C4(Cc5nncn5C)COC4)c2)C3=O)C1C (centres undefined) | < 100 | 2.51 | 1.01 | 0.051 | 1.01 | 1.01 | 0.601 |  |  |  | 
9 | Cn1cnnc1CC1(c2cccc(N3Cc4c(cc(CN5CCC(F)(F)CC5)cc4C(F)(F)F)C3=O)c2)COC1 | < 100 | >=7.5 | >=7.5 | >=0.201 | 1.31 | 1.31 | >=1.001 |  |  |  | 
10 | Cn1cnnc1[C@@H](F)C1(c2cccc(N3Cc4c(cc(CN5CCC6(CC6)C5)cc4C(F)(F)F)C3=O)c2)COC1 | < 100 | >=7.5 | 5 | 0.101 | 1.31 | 1.01 | >=1.001 |  |  |  | 
11 | Cn1cnnc1[C@@H](F)C1(c2cccc(N3Cc4c(cc(CN5C6CCCC5CC6)cc4C(F)(F)F)C3=O)c2)COC1 (stereo in doubt; 671a) | < 100 | 5 | 2.51 |  |  |  |  | >=0.201 | >=1.76 | 1.51 | 0.601
12 | CC(c1cc2c(c(C3CC3)n1)CN(c1cccc(C3(Cc4nncn4C)COC3)c1)C2=O)N1CCCCC1 (centres undefined) | < 100 | >=7.5 | 5 | >=0.201 | >=1.76 | >=1.76 | 0.601 |  |  |  | 
13 | Cc1cc(C(=O)Nc2cc(C3CC3)cc(C3(Cc4nncn4C)COC3)c2)nc(C2CC2)n1 | < 100 | >=7.5 | 2.51 | >=0.201 | 1.31 | 1.01 | >=1.001 |  |  |  | 
14 | CC(O)c1cc2c(c(C(F)(F)F)c1)CN(c1cccc(C3(Cc4nncn4C)COC3)c1)C2=O (centres undefined) | < 100 | 2.51 | 1.01 | 0.151 | 1.01 | 1.01 | >=1.001 |  |  |  | 
15 | Cn1cnnc1CC1(c2cccc(NC(=O)c3cc(CN4C[C@H]5C[C@H]5C4)cc(C4CC4)n3)c2)COC1 | < 100 | >=7.5 | >=7.5 | >=0.201 | 1.31 | 1.31 | >=1.001 |  |  |  | 
16 | Cn1cnnc1CC1(c2cccc(N3Cc4c(cc(OC(F)F)cc4C(F)(F)F)C3=O)c2)COC1 | < 100 | 5 | 2.51 | 0.051 | 1.31 | 1.01 | 0.801 |  |  |  | 
17 | Cn1cnnc1CC1(c2cccc(N3Cc4c(cc(CN5C6CCCC5CC6)cc4C(F)(F)F)C3=O)c2)COC1 | < 100 | >=7.5 | >=7.5 | >=0.201 | >=1.76 | >=1.76 | >=1.001 |  |  |  | 
18 | Cc1cc(C(=O)Nc2cccc(C3(Cc4nncn4C)CC(F)(F)C3)c2)nc(C2CC2)n1 | < 100 | >=7.5 | 5 | >=0.201 | 1.01 | 1.01 | >=1.001 |  |  |  | 
19 | CC1C(C(F)(F)F)CCN1Cc1cc2c(c(C(F)(F)F)c1)CN(c1cccc(C3(Cc4nncn4C)COC3)c1)C2=O (centres undefined) | < 100 | >=7.5 | 5 | 0.051 | 1.31 | 1.01 | >=1.001 |  |  |  | 
20 | Cc1cc2c(c(C3CC3)n1)CN(c1cccc(C3(Cc4nncn4C)COC3)c1)C2=O | < 100 | 2.51 | 1.01 | 0.051 | 1.31 | 1.01 | 0.801 |  |  |  | 
21 | Cn1cnnc1CC1(c2cccc(NC(=O)c3cc(CN4CCCCC4)nc(C4CC4)n3)c2)COC1 | < 100 | >=7.5 | >=7.5 | >=0.201 | >=1.76 | >=1.76 | >=1.001 |  |  |  | 
22 | Cn1cnnc1[C@@H](F)C1(c2cccc(N3Cc4c(cc(CN5[C@H]6CC[C@H]5CC(F)C6)cc4C(F)(F)F)C3=O)c2)COC1 (some centres undefined) | < 100 | >=7.5 | 2.51 | >=0.201 | >=1.76 | >=1.76 | 0.801 |  |  |  | 
